Where a name gives a salt, the structure may show the parent alone.
How the values were obtained:
[1] = test system: CD3+CD4+ lamina propria lymphocytes; test: Flow cytometry of lamina propria lymphocytes for Th17-produced cytokines, 8-week STAT; assay type: in vivo, C57BL/6J mice; conditions: small and large intestine, STAT vs control
Description: Lamina propria lymphocytes (LPL) from both small and large intestine were isolated from 8-week STAT mice (Control n=4, STAT n=4) and analyzed for intracellular, Th17-produced cytokines by flow cytometry. Plots gated on CD3+CD4+LPL. IL-17^+ and IL-22^+ cells were decreased in STAT compared to control mice in both the small and large intestine (FIG. 5).
Small and large intestines of mice were dissected, and all mesenteric fat and Peyer's patches were removed. Intestines were fileted for removal of stool, cut into 2 cm pieces, and washed with PBS. Tissues were transferred to tubes with 10 ml 1 mM DTT/PBS, shaken at RT for 10 minutes, and transferred to tubes with 30 mM EDTA and 10 mM HEPES in PBS. Intestines were then shaken at 37° C. for 20 minutes and washed in complete RPMI. The small and large intestines were digested at 37 C for 1.5 hours in 100 units/ml collagenase Type VIII (Sigma) and 150 μg/ml DNase (Sigma) in complete RPMI. Cells were filtered through a 50 micron filter, washed with 5 ml PBS, and pelleted. Cells were then resuspended in 40% Percoll (GE Healthcare), under-layed with 80% Percoll, and centrifuged at 2,200 rpm for 20 min at RT. […]
Cells were stimulated with phorbol 12-myristate 13-acetate (PMA) and ionomycin for 4 hours at 37 C with the addition of GolgiPlug (BD). […] Cells were acquired on an LSRII (BD) and analyzed with FlowJo (Tree Star, Inc.) software.

[2] = test system: Candidatus Arthromitus (segmented filamentous bacteria, SFB); test: SFB relative abundance by 16S rRNA sequencing in microbiota donors; assay type: in vivo, C57BL6J mice; conditions: STAT donors, all time points
Description: As above, mice were weaned onto normal chow at 4 weeks and switched to HFD at 6 weeks of age. Cecal microbiota was collected at 18 weeks of age and transferred to 3 to 4-week old germ-free Swiss-Webster mice, which were then housed in specific pathogen-free (SPF) conditions and fed HFD. Longitudinal fecal samples were collected and microbial communities were profiled by 16S rRNA sequencing using standard universal primers (Caporaso et al., ISMEJ 2012, 8:1621-4) at an average depth of approximately 5,800 sequences per sample.
Taxonomy was assigned based on the Green Genes May 2013 database, and the percentage of sequences classified as Candidatus Arthromitus, the candidate genus name for segmented filamentous bacteria (SFB), was calculated. […] SFB was present in all 3 control donor mice at levels >1%. SFB was undetectable in STAT donors at all time points, and in the Control donors following the switch to a HFD (8 weeks and beyond). SFB was nearly undetectable in microbiota recipients. Only one STAT-recipient mouse had SFB detected, and it was only one sequence that was classified as SFB out of 7,657 total sequences. SFB was not detected in any of the 7 Control or the other 7 STAT microbiota-recipients. […] Other microbiota taxa are thus important in the transferred phenotype.

[3] = test system: SAA genes in terminal ileum; test: NOD: SAA 1, 2, 3 gene expression in terminal ileum by qPCR; assay type: in vivo; conditions: 6-week old NOD male mice, qPCR normalized to 18S rRNA, p<0.05
Description: The distal ileum (1 cm) without Peyer's Patches was collected from each mouse for RNA extraction and kept in RNAlater (Ambion) overnight at 4° C. Samples were stored at −80° C. until RNA extraction was performed.
Total RNA was extracted from mouse tissues using the RNeasy Mini Kit with on-column DNase treatment to remove contaminating gDNA (Qiagen), according to the manufacturer's instructions. 1 μg of total RNA was reverse transcribed to cDNA using Super Script II (Applied Biosystems) according to the manufacturer's instructions. To generate standards for expression analysis of each target gene, the cDNA region of interest was PCR-amplified and the product cloned into pGEM-T easy (Promega). qPCR was performed with Power SYBR Green PCR Master mix (Roche) and run in a LightCycler 480 system (Roche). Target mRNA was normalized to 18S rRNA as an internal control in each sample.
RNA was extracted from the terminal ileum of the 6-week old NOD mice. […] RNA was reverse transcribed into cDNA and then qPCR was performed for SAA1, 2, or 3 using an absolute quantitation method. Gene expression data were normalized to 18S rRNA expression. […] The results for this experiment show consistent decreases in expression of the SAA genes in the ileum, detected by two independent methods (microarray and qPCR). […]

Row | Structure (SMILES) | IL-17+ cells among CD3+CD4+ LPL [1] | IL-22+ cells among CD3+CD4+ LPL [1] | SFB relative abundance [2] | SAA gene expression (SAA 1, 2, 3) in the terminal ileum [3]
1 | CC1(C)S[C@@H]2[C@H](NC(=O)COc3ccccc3)C(=O)N2[C@H]1C(=O)[O-].[K+] [STAT, penicillin VK] | decreased | decreased | undetectable | 
2 | CC[C@H]1OC(=O)C[C@@H](O)[C@H](C)[C@@H](O[C@@H]2O[C@H](C)[C@@H](O[C@H]3C[C@@](C)(O)[C@@H](O)[C@H](C)O3)[C@H](N(C)C)[C@H]2O)[C@@H](CC=O)C[C@@H](C)C(=O)/C=C/C(C)=C/[C@@H]1CO[C@@H]1O[C@H](C)[C@@H](O)[C@@H](OC)[C@H]1OC [Tylosin, Tylosin tartrate] |  |  |  | significantly decreases

Reference: patent publication US20160120915A1, “METHODS FOR MANIPULATING IMMUNE RESPONSES BY ALTERING MICROBIOTA” (NEW YORK UNIVERSITY, priority 2013, published 2016)
